Results as given in patent US7678913B2, “Ureas as factor Xa inhibitors” (Portola Pharmaceuticals, Inc., priority 2004, dated 2010).

These compounds were tested against T1, human plasma protein factor Xa (Homo sapiens, UniProt P00742) (assay: Factor Xa IC50 determination (cleavage of chromogenic substrate S-2765)). Conditions: fXa 1 nM, S-2765 100 μM, Tris buffered saline pH 7.4, room temperature.
T1 construct: measure proteolytic activity of the enzyme (factor Xa); purchased Haematologic Technologies (Essex Junction, Vt.); host or cells: human plasma
T1 sequence (P00742 235-488 limits assumed): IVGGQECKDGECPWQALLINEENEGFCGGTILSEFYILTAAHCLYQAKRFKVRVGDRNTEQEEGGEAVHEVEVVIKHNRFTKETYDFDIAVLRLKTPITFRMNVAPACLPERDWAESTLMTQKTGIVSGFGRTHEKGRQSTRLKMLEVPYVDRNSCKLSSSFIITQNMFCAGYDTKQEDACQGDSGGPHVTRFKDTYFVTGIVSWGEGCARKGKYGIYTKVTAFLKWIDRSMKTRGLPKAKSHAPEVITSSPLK
T1 sequence (P00742 41-179 partner limits assumed): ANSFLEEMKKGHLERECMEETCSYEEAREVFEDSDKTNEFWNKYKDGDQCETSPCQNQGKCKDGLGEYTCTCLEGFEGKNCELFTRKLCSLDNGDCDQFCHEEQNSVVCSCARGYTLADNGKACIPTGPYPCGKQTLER
Format: biochemical
From the text: This example illustrates methods for evaluating the compounds of the invention, along with results obtained for such assays. The in vitro and in vivo Factor Xa isoform activities of the inventive compounds can be determined by various procedures known in the art, such as a test for their ability to inhibit the activity of the Factor Xa isoform. […] The IC50 value is the concentration (in nM) of the compound required to provide 50% inhibition of Factor Xa isoform.
An in vitro assay for detecting and measuring inhibition activity against Factor Xa is as follows:
• The substrate S-2765 (Z-D-Arg-Gly-Arg-pNA.HCl) was obtained from Diapharma (West Chester, Ohio). Enzyme: • The human plasma protein factor Xa was purchased from Haematologic Technologies (Essex Junction, Vt.). Methods
All assays, which are performed in 96-well microtiter plates, measure proteolytic activity of the enzyme (factor Xa) by following cleavage of paranitroanilide substrate. The assay buffer used for proteolytic assays was Tris buffered saline (20 mM Tris, 150 mM NaCl, 5 mM CaCl2, 0.1% Bovine serum albumin (BSA), 5% Dimethly Sulfoxide (DMSO) pH 7.4). In a 96-well microtiter plate, inhibitor was serially diluted to give a range of concentrations from 0.01 nM to 10 μM (final). Duplicate sets of wells were assayed and control wells without inhibitor were included. Enzyme was added to each well,(fXa concentration=1nM), the plate was shaken for 5 seconds and then incubated for 5 minutes at room temperature. S2765 was added (100 μM final) and the plate was shaken for 5 seconds (final liquid volume in each well was 200 μl). The degree of substrate hydrolysis was measured at 405 nm on a Thermomax plate reader (Molecular Devices, Sunnyvale, Calif.) for 2 minutes. The initial velocities (mOD/min), for each range of inhibitor concentrations, were fitted to a four parameter equation using Softmax data analysis software. The parameter C, derived from the resulting curve-fit, corresponded to the concentration for half maximal inhibition (IC50).

| SMILES | IC50 |
| --- | --- |
| N=C(c1ccc(NC(=O)C(NC(=O)Nc2ccc(Cl)cc2)c2ccccc2)c(F)c1)N1CCCC1 (stereo not drawn) [Example 38, N-[4-(pyrrolidin-1-ylimino)-2-fluorophenyl]-2-phenyl-2-(4-chlorophenylaminocarbonylamino)-acetamide] | ≤ 0.1 µM |
| CN1CCC(N2CCN(C(=O)C(NC(=O)Nc3ccc(Cl)cc3)c3ccccc3)CC2)CC1 (stereo not drawn) [Example 128] | ≤ 0.1 µM |
| CN1CCN=C1c1ccc(NC(=O)C(NC(=O)Nc2ccc(Cl)cc2)c2ccccc2Br)cc1 (stereo not drawn) [Example 77, N-[4-(1-methyl-4,5-dihydro-1H-imidazol-2-yl)phenyl]-2-(2-bromophenyl)-2-(4-chlorophenylaminocarbonylamino)-acetamide] | ≤ 0.1 µM |
| O=C(Nc1ccc(Cl)cc1)NC(C(=O)Nc1ccc(-c2cc[n+]([O-])cc2)cc1)c1ccccc1Br (stereo not drawn) [Example 78, N-[4-(N-oxo-pyridin-4-yl)phenyl]-2-(2-bromophenyl)-2-(4-chlorophenylaminocarbonylamino)-acetamide] | 0.1 to 0.5 µM |
| COc1ccccc1C(NC(=O)Nc1ccc(Cl)cc1)C(=O)N1CCN(C2CCCN(C)CC2)CC1 (stereo not drawn) [Example 153, 4-(1-methylhomopiperidin-4-yl)piperazin-1-yl-2-(2-methoxyphenyl)-2-(4-chlorophenylaminocarbonylamino)-acetamide] | ≤ 0.1 µM |
| CC#CCC(NC(=O)Nc1ccc(Cl)cc1)C(=O)Nc1ccc(-c2cccc[n+]2[O-])cc1 (stereo not drawn) [Example 131, N-[4-(N-oxo-pyridin-2-yl)phenyl]-2-(but-2-yn-1-yl)-2-(4-chlorophenylaminocarbonylamino)-acetamide] | ≤ 0.1 µM |
| COc1ccccc1C(NC(=O)Nc1ccc(Cl)cc1)C(=O)Nc1ccc(C2=NCCN2C)cc1 (stereo not drawn) [Example 106, N-[4-(1-methyl-4,5-dihydro-1H-imidazol-2-yl)phenyl]-2-(2-methoxyphenyl)-2-(4-chlorophenylaminocarbonylamino)-acetamide] | ≤ 0.1 µM |
| CCN(C)C(=N)c1ccc(NC(=O)C(NC(=O)Nc2ccc(Cl)cc2)c2cccs2)cc1 (stereo not drawn) [Example 20, N-[4-(N-methyl-N-ethylaminoimino)phenyl]-2-(2-thienyl)-2-(4-chlorophenylaminocarbonylamino)-acetamide] | ≤ 0.1 µM |
| C=CCN(C)C(=N)c1ccc(NC(=O)C(NC(=O)Nc2ccc(Cl)cc2)c2ccccc2)c(F)c1 (stereo not drawn) [Example 35, N-[4-(N-methyl-N-allylaminoimino)-2-fluorophenyl]-2-phenyl-2-(4-chlorophenylaminocarbonylamino)-acetamide] | ≤ 0.1 µM |
| CN1CCN=C1c1ccc(N2C(=O)C(NC(=O)Nc3ccc(Cl)cc3)Cc3ccccc32)cc1 (stereo not drawn) [Example 136, 1-[4-(1-methyl-4,5-dihyrdo-1H-imidazol-2-yl)phenyl]-3-(4-chlorophenylaminocarbonylamino)-3,4-dihydroquinolin-2-one] | ≤ 0.1 µM |
| O=C(Nc1ccc(Cl)cc1)NC(C(=O)Nc1ccc(-c2ccncc2)cc1)c1ccccc1F (stereo not drawn) [Example 49, N-[4-(pyridin-4-yl)phenyl]-2-(2-fluorophenyl)-2-(4-chlorophenylaminocarbonylamino)-acetamide] | 0.1 to 0.5 µM |
| CN1CCC(N2CCN(C(=O)C(NC(=O)Nc3ccc(Cl)cc3)c3ccccc3Br)CC2)CC1 (stereo not drawn) [Example 83] | ≤ 0.1 µM |
| CN1CCCN(c2ccc(NC(=O)C(NC(=O)Nc3ccc(Cl)cc3)c3ccccc3Cl)cc2)CC1 (stereo not drawn) [Example 102, N-[4-(4-methyl-homopiperazinyl)phenyl]-2-(2-chlorophenyl)-2-(4-chlorophenylaminocarbonylamino)-acetamide] | ≤ 0.1 µM |
| CN1CCN=C1c1ccc(NC(=O)C(Cc2c[nH]c3ccccc23)NC(=O)Nc2ccc(Cl)cc2)cc1 (stereo not drawn) [Example 6, N-[4-(1-methyl-4,5-dihydro-1H-imidazol-2-yl)phenyl]-2-indol-3-ylmethyl-2-(4-chlorophenylaminocarbonylamino)-acetamide] | ≤ 0.1 µM |
| CN1CCN=C1c1ccc(NC(=O)C(NC(=O)Nc2ccc(Cl)cc2)c2cccc(Cl)c2)cc1 (stereo not drawn) [Example 74, N-[4-(1-methyl-4,5-dihydro-1H-imidazol-2-yl)phenyl]-2-(3-chlorophenyl)-2-(4-chlorophenylaminocarbonylamino)-acetamide] | ≤ 0.1 µM |
| CN1CCN=C1c1ccc(NC(=O)[C@H](CC(=O)O)NC(=O)Nc2ccc(Cl)cc2)cc1 [Example 60, (2S) N-[4-(1-methyl-4,5-dihydro-1H-imidazol-2-yl)phenyl]-2-carboxymethyl-2-(4-chlorophenylaminocarbonylamino)-acetamide] | ≥ 0.5 µM |
| CN1CCN=C1c1ccc(NC(=O)C(Cc2cn(C)c3ccccc23)NC(=O)Nc2ccc(Cl)cc2)cc1 (stereo not drawn) [Example 8, N-[4-(1-methyl-4,5-dihydro-1H-imidazol-2-yl)phenyl]-2-(1-methyl-indol-3-ylmethyl)-2-(4-chlorophenylaminocarbonylamino)-acetamide] | ≤ 0.1 µM |
| O=C(Nc1ccc(Cl)cc1)N[C@@H](C(=O)N1CCC(N2CCCCC2=O)CC1)c1ccccc1 [Example 141, (2R) 4-(2-piperidinon-1-yl)piperidin-1-yl-2-phenyl-2-(4-chlorophenylaminocarbonylamino)-acetamide] | ≤ 0.1 µM |
| CN(C)C(=N)c1ccc(NC(=O)C(NC(=O)Nc2ccc(Cl)cc2)c2ccccc2)cc1 (stereo not drawn) [Example 23] | ≤ 0.1 µM |
| CN1CCN=C1c1ccc(NC(=O)CNC(=O)Nc2ccc(Cl)cc2)cc1 [Example 1, N-[4-(1-methyl-4,5-dihydro-1H-imidazol-2-yl)phenyl]-2-(4-chlorophenylaminocarbonylamino)-acetamide] | ≤ 0.1 µM |
| Cc1ccccc1C(NC(=O)Nc1ccc(Cl)cc1)C(=O)N1CCC(N2CCOCC2=O)CC1 (stereo not drawn) [Example 147, 4-(3-morpholinon-4-yl)piperidin-1-yl-2-(2-methylphenyl)-2-(4-chlorophenylaminocarbonylamino)-acetamide] | 0.1 to 0.5 µM |
| CN1CCC(C2CCN(C(=O)[C@H](NC(=O)Nc3ccc(Cl)cc3)c3ccccc3)CC2)CC1 [Example 155, (2R) 4-(1-methylpiperidin-4-yl)piperidin-1-yl-2-phenyl-2-(4-chlorophenylaminocarbonylamino)-acetamide] | ≤ 0.1 µM |
| O=C(Nc1ccc(Cl)cc1)NC(C(=O)N1CCC(N2CCCCC2=O)CC1)c1ccccc1F (stereo not drawn) [Example 149, 4-(2-piperidinon-1-yl)piperidin-1-yl-2-(2-fluorophenyl)-2-(4-chlorophenylaminocarbonylamino)-acetamide] | ≤ 0.1 µM |
| CN1CCN=C1c1ccc(NC(=O)C(NC(=O)Nc2ccc(Cl)cc2)c2ccc(Br)cc2)cc1 (stereo not drawn) [Example 119, N-[4-(1-methyl-4,5-dihydro-1H-imidazol-2-yl)phenyl]-2-(4-bromophenyl)-2-(4-chlorophenylaminocarbonylamino)-acetamide] | ≤ 0.1 µM |
| O=C(Nc1ccc(Cl)cc1)NC(C(=O)NCC1CCNCC1)c1ccccc1F (stereo not drawn) [Example 53, N-(piperidin-4-ylmethyl)-2-(2-fluorophenyl)-2-(4-chlorophenylaminocarbonylamino)-acetamide] | ≥ 0.5 µM |
| Cc1ccccc1C(NC(=O)Nc1ccc(Cl)cc1)C(=O)Nc1ccc(-c2ccccc2CN(C)C)cc1 (stereo not drawn) [Example 89, N-[4-(2-dimethylaminomethyl-phenyl)phenyl]-2-(2-methylphenyl)-2-(4-chlorophenylaminocarbonylamino)-acetamide] | ≤ 0.1 µM |
| N=C(c1ccc(NC(=O)C(NC(=O)Nc2ccc(Cl)cc2)c2ccccc2)cc1)N1CCCC1 (stereo not drawn) [Example 29] | ≤ 0.1 µM |
